pIC50: −log10 of the molar value.
How the values were obtained:
Assay in all cases: Cell proliferation assay (Alamar Blue)
Type in all cases: cell-based
[1] = test system: NCl-H2170; details: 144 h; NCl-H2170 tumor cell line; 6 days
Protocol: (§1) 1. Instruments and Materials • Thermo 311 CO2 incubator; Haier biosafety cabinet; Molecular Devices microplate reader; Xiangyi brand L530 desktop low speed centrifuge; Olympus IX51 inverted fluorescence microscope, DMEM, RPMI 1640, MEM, DMEM/F12 1:1 medium, Fetal bovine serum, 0.25% trypsin solution, phosphate buffer (Thermo Fisher Shanghai Co., Ltd.); sigma dimethyl sulfoxide (DMSO), resazurin; 54 commercial tumor cell lines (including 26 liver cancer cell lines). Experimental drugs: compounds 1-12 and active drug Linifanib; chemotherapeutic drug Doxorubicin (HY-15142; Shanghai Qianyuan Biomedical Technology Co., Ltd.).
(§2) 2. Experimental Methods • 2.1 Cultivation of different cell lines • 54 cell lines were cultured in a culture medium containing fetal bovine serum and placed in a 5% CO 2 incubator at 37° C. for incubation. The cells were all grown in an adherent state, and the growth was observed under an inverted microscope, and subculture was performed when the cell confluence rate reached 80%-90%. The proportion and quantity of passage were determined by experimental needs. The ratio of subculture of this cell line was generally 1:2^˜1:3. • 2.2 inhibition effect on the proliferation of different tumor cell lines • Cell test: 54 cell lines in logarithmic growth phase were inoculated in 96-well culture plates at 500^˜1×10^4/well (the optimal seeding density of each cell line was determined in pre-experiment), After incubating at 37° C. for 4 h in a 5% CO2 humidification incubator, added 10 μL of compounds 1-12 or Linifanib to each well, and tested 9 drug concentration gradients for each compound (diluted from the highest concentration of the test by 3.16 times). The solubility of each compound was different at a starting concentration of 30 or 100 μM, respectively. The QC reference compound Doxorubicin was added simultaneously to each cell line test, and the final drug concentrations were 10, 3.16, 1, 0.31, 0.1, 0.03, 0.01, 0.003, and 0.001 μM, respectively. In addition, a positive control group (100% inhibition) and a negative control group (0% inhibition) were set at the same time. The drug group was repeated for 2 wells per concentration, and the positive control group and the negative control group were repeated for 6 wells. After the culture was continued for 6 days in the incubator, AlamarBlue test operation was followed; • AlamarBlue test procedure: Incubated with 10 μL of AlamarBlue reagent per well for 1-4 h, shook for 1-2 min, MD microplate reader EX: 560 nm, EM: 590 nm wavelength to measure fluorescence, recorded the results, calculated the cell inhibition rate of the compound of the invention. Cell inhibition rate (%)=(A0% inhibition−A administration)/(A0% inhibition−A100% inhibition)×100%, and then using the method of nonlinear regression using Graph Pad Prism 5.0 or MATILAB software (usually using four parameters) to graph and obtain a drug dose response curve to obtain an IC50 value of the compound of the present invention acting on a cancer cell line.

[2] = test system: K562; details: Homo sapiens, 144 h; K562 tumor cell line; 6 days
Protocol: as §1, §2

[3] = test system: HT55; details: Homo sapiens, 144 h; HT55 tumor cell line; 6 days
Protocol: as §1, §2

[4] = test system: SNU886; details: SNU-886, 144 h; SNU886 liver cancer cell line; 6 days
Protocol: as §1, §2

[5] = test system: HCCLM3; details: Homo sapiens, 144 h; HCCLM3 tumor cell line; 6 days
Protocol: as §1, §2

[6] = test system: Hep3B2.1-7; details: 144 h; Hep3B2.1-7 liver cancer cell line; 6 days
Protocol: as §1, §2

[7] = test system: KASUMI-1; details: KASUMI-1 (leukemia cells); for pIC50: Homo sapiens, 144 h, 6 days
Protocol: as §1, §2

[8] = test system: MDA-MB-231; details: Homo sapiens, 144 h; MDA-MB-231 tumor cell line; 6 days
Protocol: as §1, §2

[9] = test system: 22RV1; details: Homo sapiens, 144 h; 22RV1 tumor cell line; 6 days
Protocol: as §1, §2

[10] = test system: SNU423; details: Homo sapiens, SNU-423, 144 h; SNU423 liver cancer cell line; 6 days
Protocol: as §1, §2

[11] = test system: SK-HEP-1; details: Homo sapiens, SK-HEP1, 144 h; SK-HEP-1 liver cancer cell line; 6 days
Protocol: as §1, §2

[12] = test system: AN3CA; details: for pIC50: Homo sapiens, AN3-CA, 144 h, AN3CA (endometrial cells), 6 days
Protocol: as §1, §2

[13] = test system: Li-7; details: 144 h; Li-7 liver cancer cell line; 6 days
Protocol: as §1, §2

[14] = test system: TE-15; details: Homo sapiens, 144 h; TE-15 tumor cell line; 6 days
Protocol: as §1, §2

[15] = test system: HLE; details: Homo sapiens, 144 h; HLE liver cancer cell line; 6 days
Protocol: as §1, §2

[16] = test system: JHH7; details: 144 h; JHH7 liver cancer cell line; 6 days
Protocol: as §1, §2

[17] = test system: NCl-H526; details: 144 h; NCl-H526 tumor cell line; 6 days
Protocol: as §1, §2

[18] = test system: NCl-H661; details: 144 h; NCl-H661 tumor cell line; 6 days
Protocol: as §1, §2

[19] = test system: HEPG2; details: Homo sapiens, 144 h; HEPG2 liver cancer cell line; 6 days
Protocol: as §1, §2

[20] = test system: DLD1; details: Homo sapiens, DLD-1, 144 h; DLD1 tumor cell line; 6 days
Protocol: as §1, §2

[21] = test system: HUH6; details: Homo sapiens, HuH-6, 144 h; HUH6 liver cancer cell line; 6 days
Protocol: as §1, §2

[22] = test system: SNU398; details: Homo sapiens, SNU-398, 144 h; SNU398 liver cancer cell line; 6 days
Protocol: as §1, §2

[23] = test system: SNU739; details: SNU-739, 144 h; SNU739 liver cancer cell line; 6 days
Protocol: as §1, §2

| pIC50 [1] | pIC50 [2] | pIC50 [4] | pIC50 [5] | pIC50 [6] | pIC50 [8] | pIC50 [9] | pIC50 [10] | pIC50 [11] | pIC50 [17] | pIC50 [18] | pIC50 [19] | pIC50 [20] | SMILES | pIC50 [3] | pIC50 [7] | pIC50 [12] | pIC50 [13] | pIC50 [14] | pIC50 [15] | pIC50 [16] | other results |
| --- | --- | --- | --- | --- | --- | --- | --- | --- | --- | --- | --- | --- | --- | --- | --- | --- | --- | --- | --- | --- | --- |
| 4.14 | 4.48 | < 4.00 | 4.13 | 4.30 | 4.09 | 4.05 | < 4.00 | 4.26 | 4.03 | < 4.00 | 4.95 | 4.05 | Cc1ccc(F)c(NC(=O)Nc2ccc(-c3cccc4c3c(N)nn4C(=O)CCCCCNC(=O)C[C@H](N)C(=O)O)cc2)c1 [Compound 11] | < 4.00 | 5.92 | 4.70 | 4.46 | < 4.00 | 4.26 | 4.40 | pIC50 [21]: 4.33; pIC50 [22]: 4.10; pIC50 [23]: 4.19 |
| 5.10 | 4.77 | 5.04 | 4.59 | 5.27 | 5.07 | 4.99 | 4.58 | 4.80 | 4.95 | 4.68 | 5.76 | 4.69 | Cc1ccc(F)c(NC(=O)Nc2ccc(-c3cccc4c3c(N)nn4C(=O)C[C@H](N)C(=O)N[C@@H](CCC(=O)N[C@@H](CCC(=O)N[C@@H](CCC(=O)N[C@@H](CCC(=O)N[C@@H](CCC(=O)N[C@@H](CCC(=O)N[C@@H](CCC(=O)N[C@@H](CCC(=O)N[C@@H](CCC(=O)O)C(=O)O)C(=O)O)C(=O)O)C(=O)O)C(=O)O)C(=O)O)C(=O)O)C(=O)O)C(=O)O)cc2)c1 [Compound 3] | 4.50 | 6.72 | 6.19 | 5.00 | 4.89 | 5.33 | 5.24 | pIC50 [21]: 5.81; pIC50 [22]: 4.77; pIC50 [23]: 5.09 |
| 5.46 | 5.15 | 5.43 | 4.80 | 5.46 | 5.30 | 5.11 | 4.84 | 5.03 | 5.05 | 4.95 | 6.19 | 4.85 | Cc1ccc(F)c(NC(=O)Nc2ccc(-c3cccc4c3c(N)nn4C(=O)C[C@H](N)C(=O)N[C@@H](CCC(=O)N[C@@H](CCC(=O)N[C@@H](CCC(=O)N[C@@H](CCC(=O)O)C(=O)O)C(=O)O)C(=O)O)C(=O)O)cc2)c1 [Compound 2] | 4.69 | 6.92 | 6.35 | 5.14 | 5.07 | 5.57 | 5.55 | pIC50 [21]: 6.09; pIC50 [22]: 5.20; pIC50 [23]: 5.20 |
| 5.91 | 5.52 | 5.84 | 5.05 | 5.91 | 5.50 | 5.21 | 5.06 | 5.56 | 5.36 | 5.26 | 6.43 | 5.12 | Cc1ccc(F)c(NC(=O)Nc2ccc(-c3cccc4c3c(N)nn4C(=O)C[C@H](N)C(=O)O)cc2)c1 [Compound 10] | 4.83 | 7.38 | 6.62 | 5.36 | 5.20 | 5.90 | 5.78 | pIC50 [21]: 6.82; pIC50 [22]: 5.52; pIC50 [23]: 5.41 |

| SMILES | pIC50 [1] | pIC50 [2] | pIC50 [4] | pIC50 [5] | pIC50 [6] | pIC50 [8] | pIC50 [9] | pIC50 [10] | pIC50 [11] | pIC50 [17] | pIC50 [18] | pIC50 [19] | pIC50 [20] | pIC50 [3] | pIC50 [7] | pIC50 [12] | pIC50 [13] | pIC50 [14] | pIC50 [15] | pIC50 [16] | other results |
| --- | --- | --- | --- | --- | --- | --- | --- | --- | --- | --- | --- | --- | --- | --- | --- | --- | --- | --- | --- | --- | --- |
| Cc1ccc(F)c(NC(=O)Nc2ccc(-c3cccc4c3c(N)nn4C(=O)CCCCCNC(=O)C[C@H](N)C(=O)N[C@@H](CCC(=O)N[C@@H](CCC(=O)N[C@@H](CCC(=O)N[C@@H](CCC(=O)O)C(=O)O)C(=O)O)C(=O)O)C(=O)O)cc2)c1 [Compound 5] | < 4.00 | 4.25 | < 4.00 | < 4.00 | 4.12 | < 4.00 | < 4.00 | < 4.00 | 4.07 | < 4.00 | < 4.00 | 4.51 | < 4.00 | < 4.00 | 5.49 | 4.34 | 4.23 | < 4.00 | 4.27 | 4.24 | pIC50 [21]: 4.14; pIC50 [22]: < 4.00; pIC50 [23]: < 4.00 |
| Cc1ccc(F)c(NC(=O)Nc2ccc(-c3cccc4c3c(N)nn4C(=O)CCCCCCCCCCCNC(=O)C[C@H](N)C(=O)N[C@@H](CCC(=O)N[C@@H](CCC(=O)N[C@@H](CCC(=O)N[C@@H](CCC(=O)O)C(=O)O)C(=O)O)C(=O)O)C(=O)O)cc2)c1 [Compound 8] | 4.28 | < 4.00 | 4.22 | < 4.00 | 4.44 | 4.27 | < 4.00 | 4.43 | < 4.00 | 4.00 | < 4.00 | 4.67 | 4.29 | < 4.00 | 7.00 | 5.50 | 4.40 | 4.37 | 4.43 | 4.69 | difference of IC50 value versus Linifanib [7]: 10 times; difference of IC50 value versus Linifanib ([12]; AN3-CA (endometrial cells)): 16.7 times; pIC50 [21]: 4.55; pIC50 [22]: 4.30; pIC50 [23]: 4.19 |

Source: patent publication US11351151B2, “Compound having anticancer activity and preparation method and application” (3D Medicines (Beijing) Co., Ltd., priority 2016, dated 2022)
